{"source": "patent US6022526A", "about": "“Use of texaphyrins in detection of melanin and melanin metabolites diagnostic of melanotic melanoma” (Pharmacyclics, Inc., priority 1997, dated 2000)", "key": {"B16 melanoma": {"system": "B16 melanoma", "experiment": "Biodistribution of LuT2BET in B16 melanoma-bearing mice (fluorescence of tissue extracts and plasma)", "format": "in vivo, C57 mice", "protocol": "The present example provides results from a study of the biodistribution of lutetium texaphyrin in melanoma-bearing mice. The biodistribution of LuT2BET was analyzed in C57 mice bearing B16 melanoma at 3 h, 5 h, and 24 h after an intravenous administration of 10 or 20 μmol/kg.\n(§1) LuT2BET: The synthesis and chemical analysis of lutetium texaphyrin (LuT2BET, texaphyrin A2 of Tables A and B where M is lutetium) was provided in, for example, U.S. Pat. No. 5,622,946 and in PCT publication W095/10307. LuT2BET was dissolved in 5% mannitol at a 2 mM concentration. LuT2BET absorbs strongly in the far-red region of the electromagnetic spectrum, having a molar extinction coefficient of 23,000 M^-1 cm^-1 in this solution at 732 nm.\n(§2) Melanoma Cells: B16F10 melanotic melanoma murine cells were obtained from the University of California, San Francisco Cell Culture Facility. These cells are highly pigmented and metastatic in vivo. Cells were grown in Iscove's Modified Dulbeccos' Medium (Gibco, Grand Island, N.Y.) supplemented with 10% fetal bovine serum (JRH Biosciences, Woodland, Calif.) and penicillin/streptomycin (Sigma, St. Louis, Mo.).\nAnimals and Tumor Model: Inbred C57BL/6N female mice, (C57 mice) seven to eight weeks of age, were obtained from Simonsen Laboratories Inc. (Gilroy, Calif.). […] Tumor size, i.e., length (l), width (w), and height (h), was measured 3 times a week with a vernier caliper. Tumor volumes were calculated using the formula for a hemiellipsoid (Rockwell and Kallman, 1972): […]\nTissue Extraction Procedure: LuT2BET was administered via tail-vein injection at 10 or 20 μmol/kg. Tissues and plasma were analyzed at 3, 5 or 24 h post administration of the photosensitizer. […] Plasma samples (125 μL) were mixed with 10 mM TRITON X-100® and analyzed for texaphyrin content by fluorescence. […] Samples were then analyzed for lutetium texaphyrin content by fluorescence (excitation=450 nm, emission=700-800 nm). […] Texaphyrin accumulation is expressed as μg drug/g tissue (wet weight) or per mL plasma.\nStatistical analysis: Values are expressed as mean±SD. […]"}, "[1]": {"system": "B16F10 melanotic melanoma murine cells", "experiment": "Confocal laser scanning (fluorescent) microscopy of lutetium texaphyrin in melanoma cells", "format": "cell-based", "conditions": "20 μg/ml LuT2BET, 1 to 24 h", "protocol": "Fluorescent Microscopy of Texaphyrin in Melanoma Cells\nThe present example provides results from fluorescent microscopy studies using lutetium texaphyrin (LuT2BET) incorporated into melanoma cells.\nB16F10 melanotic melanoma murine cells as described in Example 2 were incubated with 20 μg/ml LuT2BET for 1 to 24 h in Waymouth's medium supplemented with 15% fetal bovine serum. The adherent cells were washed thoroughly with PBS (3×) and examined using confocal laser scanning microscopy.\nas §2"}, "[2]": {"experiment": "Absorption of LuT2BET in 5% mannitol", "format": "physicochemical", "conditions": "732 nm, 2 mM in 5% mannitol", "protocol": "as §1"}, "carcinoma SMT-F": {"system": "carcinoma SMT-F", "experiment": "Pharmacological data with radiolabeled [^14 C]-LuT2BET in SMT-F bearing mice", "format": "in vivo", "conditions": "8.64 μmol/kg", "protocol": "A dose of 8.64 μmol/kg LuT2BET produced drug uptake values of 5.1 μg/g, 4.7 μg/g, and 2.8 μg/g at 3 h, 5 h, and 24 h after injection, yielding tumor:muscle ratios of 8.45:1, 10:1 and 7:1, respectively."}, "[3]": {"conditions": "cited from earlier work"}}}
{"smiles": "CC(=O)[O-].CC(=O)[O-].CCc1c(CC)c2cc3nc(cnc4cc(OCCOCCOCCOC)c(OCCOCCOCCOC)cc4ncc4nc(cc1[n-]2)C(CCCO)=C4C)C(C)=C3CCCO.O.[Lu+3]", "note": "[LuT2BET]", "values": [{"measurement": "tumor:muscle ratio (x:1)", "setting": "B16 melanoma; 10 μmol/kg i.v., 5 h", "value": 15}, {"measurement": "tumor localizing capacity", "setting": "B16 melanoma; mouse, in vivo", "value": "good tumor localizing capacity"}, {"measurement": "uptake into B16 melanoma compared to carcinoma SMT-F", "setting": "B16 melanoma; mouse, in vivo", "value": "increased uptake"}, {"measurement": "localization at dendritic processes", "setting": "[1]; listed as Lutetium texaphyrin", "value": "collect at the dendritic processes"}, {"measurement": "localization in melanosomes", "setting": "[1]; listed as Lutetium texaphyrin", "value": "highly concentrated in the melanosomes of melanoma cells"}, {"measurement": "localization at dendritic processes", "setting": "[1]; listed as lutetium texaphyrin", "value": "collects at the dendritic processes"}, {"measurement": "localization in melanosomes", "setting": "[1]; listed as lutetium texaphyrin", "value": "highly concentrated in the melanosomes of melanotic melanoma cells"}, {"measurement": "molar extinction coefficient", "setting": "[2]", "value": "23,000 M^-1 cm^-1"}, {"measurement": "tumor:muscle ratio (x:1)", "setting": "carcinoma SMT-F; 3 h", "value": 8.45}, {"measurement": "drug uptake (tumor)", "setting": "carcinoma SMT-F; 3 h after injection", "value": 5.1, "unit": "µg/g"}, {"measurement": "tumor:muscle ratio (x:1)", "setting": "carcinoma SMT-F; 5 h", "value": 10}, {"measurement": "drug uptake (tumor)", "setting": "carcinoma SMT-F; 5 h after injection", "value": 4.7, "unit": "µg/g"}, {"measurement": "tumor:muscle ratio (x:1)", "setting": "carcinoma SMT-F; 24 h", "value": 7}, {"measurement": "drug uptake (tumor)", "setting": "carcinoma SMT-F; 24 h after injection", "value": 2.8, "unit": "µg/g"}]}
{"smiles": "CN1CCc2ccc(O)cc2C(c2ccccc2)C1", "note": "(stereo not shown) [BZZ, 2,3,4,5-tetrahydro-3-methyl-5-phenyl-1H-3-benzazepin-7-ol]", "values": [{"measurement": "tumor specificity", "setting": "[3]; compared with an ideal detecting agent", "value": "significantly less tumor-specific than an ideal detecting agent"}, {"measurement": "levels in normal brain (caudate)", "setting": "[3]; in vivo", "value": "levels that may be toxic"}]}
